From patent publication US20180194762A1 (Pharmacyclics LLC, priority 2017, published 2018)
Like-named read-outs stand apart in the source and are kept apart here.

Columns and labels:
Format in all cases: biochemical
[1] = target: T1, panel of kinases (Homo sapiens, UniProt P51813); assay: Inhibition of a panel of kinases (in vitro HotSpot kinase assay, 33P-ATP, 1 μM ATP), other kinases; conditions: BMX wild-type, read-out: BMX-WT IC50
T1 sequence (P51813 1-675): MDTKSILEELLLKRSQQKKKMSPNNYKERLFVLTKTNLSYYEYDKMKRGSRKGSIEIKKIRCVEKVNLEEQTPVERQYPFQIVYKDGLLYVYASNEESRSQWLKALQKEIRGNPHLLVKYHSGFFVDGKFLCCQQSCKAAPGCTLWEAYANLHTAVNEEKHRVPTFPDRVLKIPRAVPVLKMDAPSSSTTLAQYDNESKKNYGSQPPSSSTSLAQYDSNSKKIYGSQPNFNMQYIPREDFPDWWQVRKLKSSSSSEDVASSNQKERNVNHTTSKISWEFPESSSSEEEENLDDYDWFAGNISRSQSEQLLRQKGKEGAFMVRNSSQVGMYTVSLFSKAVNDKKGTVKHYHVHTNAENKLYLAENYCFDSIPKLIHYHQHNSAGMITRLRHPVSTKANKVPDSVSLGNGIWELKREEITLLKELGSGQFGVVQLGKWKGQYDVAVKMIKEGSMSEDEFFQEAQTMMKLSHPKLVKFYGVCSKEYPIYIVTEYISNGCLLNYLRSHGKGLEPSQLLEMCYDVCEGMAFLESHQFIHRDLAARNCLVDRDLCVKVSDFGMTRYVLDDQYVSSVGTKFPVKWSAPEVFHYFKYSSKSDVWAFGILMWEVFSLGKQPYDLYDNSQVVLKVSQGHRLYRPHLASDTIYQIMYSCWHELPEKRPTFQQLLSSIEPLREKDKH
How it was run: (§1)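 At 1 μM ATP spiked with 33P-ATP, substrate phosphorylation by the purified enzymes gives the extent of inhibition.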

[2] = target: T2, TEC (Homo sapiens, UniProt P42680); assay: Inhibition of a panel of kinases (in vitro HotSpot kinase assay, 33P-ATP, 1 μM ATP); conditions: for IC50: HotSpot kinase assay, 1 μM ATP; for TEC/Btk: ratio of TEC IC50 to Btk IC50 (selectivity)
T2 sequence (P42680 1-631): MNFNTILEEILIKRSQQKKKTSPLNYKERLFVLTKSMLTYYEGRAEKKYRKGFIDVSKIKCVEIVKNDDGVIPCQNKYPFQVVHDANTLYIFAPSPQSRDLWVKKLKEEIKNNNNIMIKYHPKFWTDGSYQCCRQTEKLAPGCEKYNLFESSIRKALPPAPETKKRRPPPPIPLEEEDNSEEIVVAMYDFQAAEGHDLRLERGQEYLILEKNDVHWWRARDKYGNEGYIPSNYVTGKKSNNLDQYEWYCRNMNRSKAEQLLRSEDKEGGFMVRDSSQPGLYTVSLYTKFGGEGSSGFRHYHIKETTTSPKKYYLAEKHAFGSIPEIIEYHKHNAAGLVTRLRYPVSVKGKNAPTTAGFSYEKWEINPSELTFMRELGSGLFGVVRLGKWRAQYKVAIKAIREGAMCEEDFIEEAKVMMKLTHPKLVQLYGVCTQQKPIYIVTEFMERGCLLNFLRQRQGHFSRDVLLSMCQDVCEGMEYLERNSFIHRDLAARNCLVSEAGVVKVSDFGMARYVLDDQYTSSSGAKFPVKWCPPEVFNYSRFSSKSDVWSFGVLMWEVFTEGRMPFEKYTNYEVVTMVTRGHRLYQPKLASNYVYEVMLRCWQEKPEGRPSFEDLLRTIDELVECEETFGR
How it was run: as §1

[3] = target: T3, Btk (Homo sapiens, UniProt Q06187); assay: Btk in vitro inhibitory activity (one of Method A TR-FRET, Method B electrophoretic mobility shift, Method C radiometric filter binding)
T3 construct: purified from insect cells as a full-length construct containing a N-terminal 6X-His tag; His6 (N); made in house; host or cells: insect cells (Method C)
T3 sequence (Q06187 whole entry): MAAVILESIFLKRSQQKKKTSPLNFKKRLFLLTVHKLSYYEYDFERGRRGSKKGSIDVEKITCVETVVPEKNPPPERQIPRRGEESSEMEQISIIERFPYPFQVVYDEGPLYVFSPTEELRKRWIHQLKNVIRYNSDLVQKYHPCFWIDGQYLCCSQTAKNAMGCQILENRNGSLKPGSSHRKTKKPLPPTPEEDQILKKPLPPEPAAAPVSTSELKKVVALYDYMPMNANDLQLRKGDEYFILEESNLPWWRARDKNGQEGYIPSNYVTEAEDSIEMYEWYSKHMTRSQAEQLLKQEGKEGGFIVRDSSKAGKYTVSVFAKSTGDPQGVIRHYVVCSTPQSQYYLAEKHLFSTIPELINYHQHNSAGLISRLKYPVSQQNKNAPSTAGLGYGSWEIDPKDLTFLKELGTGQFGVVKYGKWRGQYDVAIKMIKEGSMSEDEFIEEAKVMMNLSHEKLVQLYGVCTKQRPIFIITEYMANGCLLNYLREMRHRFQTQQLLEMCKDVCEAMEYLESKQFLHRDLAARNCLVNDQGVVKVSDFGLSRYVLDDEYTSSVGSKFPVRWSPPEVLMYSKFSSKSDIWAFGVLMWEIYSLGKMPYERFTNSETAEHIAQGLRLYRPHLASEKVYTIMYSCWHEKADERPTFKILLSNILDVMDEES
How it was run: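 Three alternative formats were used. A radiometric filter-binding read used 8 nM full-length His-BTK with 0.2 mg/mL poly(Glu-Tyr) 4:1 (C); microfluidic separation of 1 μM FAM-peptide by 1 nM BTK gave IC50 from 12-point curves (B); TR-FRET at Km ATP, 0.5 nM Btk, gave Ki(app)-derived IC50 (A).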

[4] = wild-type Btk, read-out: Btk-WT IC50
[5] = method is one of A, B or C, not stated which, read-out: IC50 values against Btk

SMILES	IC50 [1]	IC50 [2]	IC50 [3, 4]	TEC/Btk [2]	IC50 [3, 5]
CC(C)(C)c1ccc2c(c1)CCN(Cc1ccc(-c3ccnc4[nH]nc(N[C@H]5CC[C@H](O)CC5)c34)cc1F)C2=O [Compound 38, 6-tert-butyl-2-{[2-fluoro-4-(3-{[(11r,4r)-4-hydroxycyclohexyl]amino}-1H-pyrazolo[3,4-b]pyridin-4-yl)phenyl]methyl}-1,2,3,4-tetrahydroisoquinolin-1-one]	> 10000 nM	> 10000 nM	> 10000 nM		
CC(C)(C)c1ncc(C(=O)NCc2ccc(-c3ccnc4[nH]nc(N[C@H]5CC[C@H](O)CC5)c34)cc2F)o1 [Compound 39, 2-tert-butyl-N-{[2-fluoro-4-(3-{[(1r,4r)-4-hydroxycyclohexyl]amino}-1H-pyrazolo[3,4-b]pyridin-4-yl)phenyl]methyl}-1,3-oxazole-5-carboxamide]	3820 nM	4680 nM	63.6 nM	74	
C=CC(=O)N1CC[C@@H](Nc2n[nH]c3nccc(-c4ccc(CNC(=O)c5ccc(C6CC6)cc5)c(F)c4)c23)C1 [Compound 40, 4-cyclopropyl-N-{[2-fluoro-4-(3-{[(3R)-1-(prop-2-enoyl)pyrrolidin-3-yl]amino}-1H-pyrazolo[3,4-b]pyridin-4-yl)phenyl]methyl}benzamide]	54 nM	47 nM	1.27 nM	37	
CC1(C(=O)N2CC[C@@H](Nc3n[nH]c4nccc(-c5ccc(CNC(=O)c6ccc(C7CC7)cc6)c(F)c5)c34)C2)COC1 [Compound 41, 4-cyclopropyl-N-{[2-fluoro-4-(3-{[(3R)-1-(3-methyloxetane-3-carbonyl)pyrrolidin-3-yl]amino}-1H-pyrazolo[3,4-b]pyridin-4-yl)phenyl]methyl}benzamide]	> 10000 nM	3010 nM	251 nM	12	
CC(C)(C)c1ccc(C(=O)Nc2ccc(-c3ccnc4[nH]nc(N[C@@H]5CCNC5)c34)cc2F)cc1 [Compound 42, 4-tert-butyl-N-[2-fluoro-4-(3-{[(3R)-pyrrolidin-3-yl]amino}-1H-pyrazolo[3,4-b]pyridin-4-yl)phenyl]benzamide]	> 10000 nM	> 10000 nM	> 10000 nM		
C=CC(=O)N1CC[C@@H](Nc2n[nH]c3nccc(-c4ccc(CN5CCc6cc(C(C)(C)C)ccc6C5=O)c(F)c4)c23)C1 [Compound 43, 6-tert-butyl-2-{[2-fluoro-4-(3-{[(3R)-1-(prop-2-enoyl)pyrrolidin-3-yl]amino}-1H-pyrazolo[3,4-b]pyridin-4-yl)phenyl]methyl}-1,2,3,4-tetrahydroisoquinolin-1-one]	394 nM	599 nM	2.76 nM	217	
C=CC(=O)N1CC[C@H](Nc2n[nH]c3nccc(-c4ccc(CNC(=O)c5ccc(C(C)(C)C)cc5)c(F)c4)c23)C1 [Compound 44, (S)—N-(4-(3-((1-acryloylpyrrolidin-3-yl)amino)-1H-pyrazolo[3,4-b]pyridin-4-yl)-2-fluorobenzyl)-4-(tert-butyl)benzamide]	5390 nM	7940 nM	68.2 nM	116	
C=CC(=O)N1CC[C@@H](Nc2n[nH]c3nccc(-c4ccc(NC(=O)c5ccc(C(C)(C)C)cc5)c(F)c4)c23)C1 [Compound 45]	449 nM	1920 nM	> 10000 nM	>100	
C=CC(=O)N1CC[C@@H](Nc2n[nH]c3nccc(-c4ccc(CNC(=O)c5cccc(C(C)(C)C)c5)c(F)c4)c23)C1 [Compound 46, (R)—N-(4-(3-((1-acryloylpyrrolidin-3-yl)amino)-1H-pyrazolo[3,4-b]pyridin-4-yl)-2-fluorobenzyl)-3-(tert-butyl)benzamide]	91 nM	182 nM	8.55 nM	21	
C=CC(=O)N1CC[C@@H](Nc2n[nH]c3nccc(-c4ccc(CNC(=O)c5ccc(C(=C)C)cc5)c(F)c4)c23)C1 [Compound 47, (R)—N-(4-(3-((1-acryloylpyrrolidin-3-yl)amino)-1H-pyrazolo[3,4-b]pyridin-4-yl)-2-fluorobenzyl)-4-(prop-1-en-2-yl)benzamide]	1830 nM	2940 nM	682 nM	4	
C=CC(=O)N1CC[C@@H](Nc2n[nH]c3nccc(-c4ccc(CNC(=O)c5ccc(C(F)(F)F)cc5)c(F)c4)c23)C1 [Compound 48, (R)—N-(4-(3-((1-acryloylpyrrolidin-3-yl)amino)-1H-pyrazolo[3,4-b]pyridin-4-yl)-2-fluorobenzyl)-4-(trifluoromethyl)benzamide]	46 nM	65 nM	0.798 nM	81	
C=CC(=O)N1CC[C@@H](Nc2n[nH]c3nccc(-c4ccc(CNC(=O)c5ccc(OC)cc5)c(F)c4)c23)C1 [Compound 49, (R)—N-(4-(3-((1-acryloylpyrrolidin-3-yl)amino)-1H-pyrazolo[3,4-b]pyridin-4-yl)-2-fluorobenzyl)-4-methoxybenzamide]	89 nM	70 nM	1.78 nM	39	
CC(C)(C)c1nc(C(=O)NCc2ccc(-c3ccnc4[nH]nc(N[C@H]5CCNC5)c34)cc2F)no1 [Compound 50, 5-tert-butyl-N-{[2-fluoro-4-(3-{[(3S)-pyrrolidin-3-yl]amino}-1H-pyrazolo[3,4-b]pyridin-4-yl)phenyl]methyl}-1,2,4-oxadiazole-3-carboxamide]	7440 nM	2960 nM	3.2 nM	925	
CC#CC(=O)N1CC[C@@H](Nc2n[nH]c3nccc(-c4ccc(CNC(=O)c5noc(C(C)(C)C)n5)c(F)c4)c23)C1 [Example 24, N-{[4-(3-{[(3R)-1-(but-2-ynoyl)pyrrolidin-3-yl]amino}-1H-pyrazolo[3,4-b]pyridin-4-yl)-2-fluorophenyl]methyl}-5-tert-butyl-1,2,4-oxadiazole-3-carboxamide]	44 nM	22 nM	0.139 nM		< 10 nM
CN(C)C/C=C/C(=O)N1CC[C@@H](Nc2n[nH]c3nccc(-c4ccc(CNC(=O)c5noc(C(C)(C)C)n5)c(F)c4)c23)C1 [Example 25, 5-tert-butyl-N-{[4-(3-{[(3R)-1-[(2E)-4-(dimethylamino)but-2-enoyl]pyrrolidin-3-yl]amino}-1H-pyrazolo[3,4-b]pyridin-4-yl)-2-fluorophenyl]methyl}-1,2,4-oxadiazole-3-carboxamide]	794 nM	175 nM	0.481 nM		< 10 nM
C=CC(=O)N1CC[C@@H](Nc2n[nH]c3nccc(-c4ccc(CN5CCn6c(cc7c6CC(C)(C)C7)C5=O)c(F)c4)c23)C1 [Example 53]	310 nM	152 nM	0.623 nM	244	< 10 nM
C[C@H]1NCCC[C@H]1Nc1n[nH]c2nccc(-c3ccc(CNC(=O)c4noc(C(C)(C)C)n4)c(F)c3)c12 [Example 55]	> 10000 nM	> 10000 nM	29.2 nM	>100	
CC(C)(C)c1cccc(C(=O)NCc2ccc(-c3ccnc4[nH]nc(N[C@@H]5CCNC5)c34)cc2F)c1 [Example 62, 3-tert-butyl-N-{[2-fluoro-4-(3-{[(3R)-pyrrolidin-3-yl]amino}-1H-pyrazolo[3,4-b]pyridin-4-yl)phenyl]methyl}benzamide]	2140 nM	3340 nM	861 nM	4	
